The record followed here is patent US20250320206A1, “STAT6 DEGRADERS” (Gilead Sciences, Inc., priority 2024, published 2025).

Where only a bound is given, the exact number is not on record here.

The target in the first experiment is T1, STAT6 (Homo sapiens, UniProt P42226).
T1 construct: These cells express endogenous STAT6; host or cells: HeLa LgBiT clone 4.14
T1 sequence (P42226 1-847): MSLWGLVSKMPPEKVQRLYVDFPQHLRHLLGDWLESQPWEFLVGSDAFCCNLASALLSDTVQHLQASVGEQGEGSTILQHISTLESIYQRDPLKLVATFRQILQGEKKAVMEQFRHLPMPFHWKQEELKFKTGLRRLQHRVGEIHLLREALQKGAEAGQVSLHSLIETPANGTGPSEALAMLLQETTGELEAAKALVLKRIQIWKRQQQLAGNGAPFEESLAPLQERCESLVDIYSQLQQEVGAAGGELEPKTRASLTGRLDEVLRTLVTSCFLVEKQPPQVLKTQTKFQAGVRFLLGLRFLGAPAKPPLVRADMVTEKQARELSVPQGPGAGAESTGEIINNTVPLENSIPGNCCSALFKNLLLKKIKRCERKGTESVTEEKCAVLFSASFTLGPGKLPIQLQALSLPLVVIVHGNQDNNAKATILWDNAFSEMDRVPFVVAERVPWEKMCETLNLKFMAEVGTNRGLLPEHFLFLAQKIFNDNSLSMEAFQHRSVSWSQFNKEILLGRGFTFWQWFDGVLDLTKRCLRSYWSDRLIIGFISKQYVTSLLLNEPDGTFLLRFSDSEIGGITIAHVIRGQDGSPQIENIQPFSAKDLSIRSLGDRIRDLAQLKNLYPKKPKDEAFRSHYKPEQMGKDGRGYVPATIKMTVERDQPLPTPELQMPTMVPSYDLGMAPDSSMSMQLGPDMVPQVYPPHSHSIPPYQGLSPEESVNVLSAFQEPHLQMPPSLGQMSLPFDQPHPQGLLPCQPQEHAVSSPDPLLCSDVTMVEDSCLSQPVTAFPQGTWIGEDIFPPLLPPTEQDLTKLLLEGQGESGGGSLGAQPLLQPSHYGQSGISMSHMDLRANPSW
Put plainly: Stat6 Degrader Assay (HiBiT based, HeLa LgBiT clone 4.14). As to conditions: HeLa LgBiT clone 4.14 HiBiT-STAT6, 4-24 h incubation; read-out: STAT6 degradation Emax. Format: cell-based. In short, it runs like this: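 HeLa LgBiT clone 4.14 cells with CRISPR HiBiT-tagged endogenous STAT6, 5000 cells/well, compound dosed then incubated 4-24 h at 37° C, 5% CO2. Nano-Glo substrate added, 0.5 h, luminescence read as non-degraded STAT6. Terfenadine 50 μM (cell kill) defines 100% degradation.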
On the technique in general: The HiBiT peptide binds its large partner to form an active luciferase.
On to `Cc1cc(C(=O)N2CCC(CN3CCC(Cc4ccc5c(c4)n(C)c(=O)n5C4CCC(=O)NC4=O)CC3)CC2)cc(F)c1C1CCN(Cc2cc3c(-n4ccc(N)cc4=O)ccnc3n2C)CC1` (stereo not shown) [Example 3u267, 3-(5-((1-((1-(4-(1-((4-(4-amino-2-oxopyridin-1 (2H)-yl)-1-methyl-1H-pyrrolo[2,3-b]pyridin-2-yl)methyl)piperidin-4-yl)-3-fluoro-5-methylbenzoyl)piperidin-4-yl)methyl)piperidin-4-yl)methyl)-3-methyl-2-oxo-2,3-dihydro-1H-benzo[d]imidazol-1-yl)piperidine-2,6-dione], for which the Emax was in the range of 50 to 60%.

Turning to `CNc1cc(=O)n(-c2ccnc3c2cc([C@H](C)N2CC=C(c4c(C)cc(C(=O)N5CCC(CN6CCN(c7ccc8c(c7)n(C7CCC(=O)NC7=O)c(=O)n8C)CC6)CC5)cc4F)CC2)n3C)cc1F` (stereo partly drawn) [Example 3u272, 3-(6-(4-((1-(3-fluoro-4-(1-((S)-1-(4-(5-fluoro-4-(methylamino)-2-oxopyridin-1 (2H)-yl)-1-methyl-1H-pyrrolo[2,3-b]pyridin-2-yl)ethyl)-1,2,3,6-tetrahydropyridin-4-yl)-5-methylbenzoyl)piperidin-4-yl)methyl)piperazin-1-yl)-3-methyl-2-oxo-2,3-dihydro-1H-benzo[d]imidazol-1-yl)piperidine-2,6-dione], the Emax is below 20%.

Turning to `CNc1ccn(-c2ccnc3c2cc(CN2CCC(c4c(F)cc(C(=O)N5CCC(CN6CCN(c7cc8c(cc7F)n(C7CCC(=O)NC7=O)c(=O)n8C)CC6)CC5)cc4F)CC2)n3C)c(=O)c1F` (stereo not shown) [Example 3u274, 3-(5-(4-((1-(3,5-difluoro-4-(1-((4-(3-fluoro-4-(methylamino)-2-oxopyridin-1 (2H)-yl)-1-methyl-1H-pyrrolo[2,3-b]pyridin-2-yl)methyl)piperidin-4-yl)benzoyl)piperidin-4-yl)methyl)piperazin-1-yl)-6-fluoro-3-methyl-2-oxo-2,3-dihydro-1H-benzo[d]imidazol-1-yl)piperidine-2,6-dione], the Emax was below 20%.

The experiment is the same for the next values; noted with them: HeLa LgBiT clone 4.14 HiBiT-STAT6, 4-24 h incubation; values given for compounds with >80% Emax; geometric mean; read-out: STAT6 degradation DC50.
`CNc1ccn(-c2ccnc3c2cc([C@H](C)N2CC=C(c4c(C)cc(C(=O)N5CCn6c(nnc6C6CCN(Cc7ccc8c(c7)n(C)c(=O)n8C7CCC(=O)NC7=O)CC6)C5)cc4F)CC2)n3C)c(=O)c1` (stereo partly drawn) [Example 3u275, 3-(5-((4-(7-(3-fluoro-5-methyl-4-(1-((S)-1-(1-methyl-4-(4-(methylamino)-2-oxopyridin-1 (2H)-yl)-1H-pyrrolo[2,3-b]pyridin-2-yl)ethyl)-1,2,3,6-tetrahydropyridin-4-yl)benzoyl)-5,6,7,8-tetrahydro-[1,2,4]triazolo[4,3-a]pyrazin-3-yl)piperidin-1-yl)methyl)-3-methyl-2-oxo-2,3-dihydro-1H-benzo[d]imidazol-1-yl)piperidine-2,6-dione]: the DC50 was 57.4 nM.

Regarding `CNc1cc(=O)n(-c2ccnc3c2cc([C@H](C)N2CC=C(c4c(C)cc(C(=O)N5CCC(CN6CCN(c7ccc8c(c7)n(C7CC7)c(=O)n8C7CCC(=O)NC7=O)CC6)CC5)cc4F)CC2)n3C)cc1F` (stereo partly drawn) [Example 3u276, 3-(3-cyclopropyl-5-(4-((1-(3-fluoro-4-(1-((S)-1-(4-(5-fluoro-4-(methylamino)-2-oxopyridin-1 (2H)-yl)-1-methyl-1H-pyrrolo[2,3-b]pyridin-2-yl)ethyl)-1,2,3,6-tetrahydropyridin-4-yl)-5-methyl-benzoyl)piperidin-4-yl)methyl)piperazin-1-yl)-2-oxo-2,3-dihydro-1H-benzo[d]imidazol-1-yl)piperidine-2,6-dione], the DC50 is 4.3 nM.

With `CNc1ccn(-c2ccnc3c2cc([C@H](C)N2CC=C(c4c(C)cc(C(=O)N5CCn6nc(CN7CCN(c8ccc9c(c8)n(C)c(=O)n9C8CCC(=O)NC8=O)CC7)cc6C5)cc4F)CC2)n3C)c(=O)c1` (stereo partly drawn) [Example 3u277, 3-(5-(4-((5-(3-fluoro-5-methyl-4-(1-((S)-1-(1-methyl-4-(4-(methylamino)-2-oxopyridin-1 (2H)-yl)-1H-pyrrolo[2,3-b]pyridin-2-yl)ethyl)-1,2,3,6-tetrahydropyridin-4-yl)benzoyl)-4,5,6,7-tetrahydropyrazolo[1,5-a]pyrazin-2-yl)methyl)piperazin-1-yl)-3-methyl-2-oxo-2,3-dihydro-1H-benzo[d]imidazol-1-yl)piperidine-2,6-dione], the DC50 turned out to be 0.4 nM.

A further experiment concerns Eotaxin-3 release in human whole blood stimulated with IL-4. Put plainly: Human Whole Blood Eotaxin-3 Assay (IL-4 stimulated eotaxin-3 release). Format: cell-based. The conditions noted are these: IL-4 stimulation, 48 h, values given for compounds with >80% Emax, geometric mean. The procedure: Human Whole Blood Eotaxin-3 Assay
This was a human whole blood assay using recombinant human Interleukin 4 to stimulate the blood and measuring the ability of the test compounds to inhibit eotaxin-3 release. The biological activities of the test compounds have been tested in human whole blood stimulated with IL-4 measuring Eotaxin-3 release. The test compounds were added to 384 well clear flat-bottom plate in a 4-fold serial dilution in triplicates using a liquid handler. Human whole blood stabilized in lithium-heparin tubes was added in a volume of 65 μL per well, resulting in a final DMSO concentration of 0.5%. The plate is incubated for 2 h at 37° C. under 5% CO2/95% air. Subsequently, 5 μL of recombinant human IL-4 (R&D Systems, cat #204-ILB) was added to the wells to a final concentration of […]. The plate was incubated for 48 h at 37° C. under 5% CO2/95% air. The plate was spun down for 10 minutes at 500×g and 20 μL supernatant was harvested and transferred to a 384 well v-bottom plate using a liquid handler and stored at −20° C. until further analysis. 10 μL supernatant was used to measure the level of Eotaxin-3 (CCL26) using Human Eotaxin-3 MSD kit from Mesocsale (Cat #K251UEK-4). The assay was performed according to the manufacture instructions.
The data from the human whole blood eotaxin-3 assay is shown in FIG. 2 for Examples 3u208, 3u246, 3u118, 3u119, 3u120, and 3u74 (where the effect in % is plotted against the test concentration in M on a log scale).
As to `CNc1cc(=O)n(-c2ccnc3c2cc([C@H](C)N2CC=C(c4c(C)cc(C(=O)N5CCC(CN6CCN(c7ccc8c(c7)C7(CC7)C(=O)N8[C@H]7CCC(=O)NC7=O)C[C@@H]6C)CC5)cc4F)CC2)n3C)cc1F` (single isomer, unassigned) [Example 3u65], it took 93.5 nM to reach a half-maximal effect (EC50).

The compound `CNc1ccn(-c2ccnc3c2cc(CN2CCC(c4c(F)cc(C(=O)N5CCC(CN6CCN(c7ccc8c(c7)C7(CC7)C(=O)N8[C@@H]7CCC(=O)NC7=O)CC6)CC5)cc4F)CC2)n3C)c(=O)c1` (single isomer, unassigned) [Example 3u150] yielded an EC50 of 39.2 nM.

In turn, `CNc1ccn(-c2ccnc3c2cc([C@H](C)N2CC=C(c4c(C)cc(C(=O)N5CCC(CN6CCN(c7ccc8c(c7)C(C)(C)C(=O)N8[C@H]7CCC(=O)NC7=O)CC6)CC5)cc4F)CC2)n3C)c(=O)c1` (single isomer, unassigned) [Example 3u280] came in with an EC50 of 12.8 nM.

Compound `CNc1cc(=O)n(-c2ccnc3c2cc(CN2CCC(c4c(F)cc(C(=O)N5CCC(CN6CCN(c7ccc8c(c7)C7(CC7)C(=O)N8[C@H]7CCC(=O)NC7=O)CC6)CC5)cc4F)CC2)n3C)cc1F` (single isomer, unassigned) [Example 3u288] displayed an EC50 of 88.3 nM.

`CNc1cc(=O)n(-c2ccnc3c2cc(CN2CCC(c4c(F)cc(C(=O)N5CCC(CN6CCN(c7ccc8c(c7)C7(CC7)C(=O)N8[C@@H]7CCC(=O)NC7=O)CC6)CC5)cc4F)CC2)n3C)cc1F` (single isomer, unassigned) [Example 3u289] displayed an EC50 of 18.9 nM.

Compound `CNc1ccn(-c2ccnc3c2cc(CN2CCC(c4c(F)cc(C(=O)N5CCC(CN6CCN(c7cc8c(cc7F)n(C7CCC(=O)NC7=O)c(=O)n8C)CC6)CC5)cc4F)CC2)n3C)c(=O)n1` (stereo not shown) [Example 3h43, 3-(5-(4-((1-(3,5-difluoro-4-(1-((1-methyl-4-(4-(methylamino)-2-oxopyrimidin-1 (2H)-yl)-1H-pyrrolo[2,3-b]pyridin-2-yl)methyl)piperidin-4-yl)benzoyl)piperidin-4-yl)methyl)piperazin-1-yl)-6-fluoro-3-methyl-2-oxo-2,3-dihydro-1H-benzo[d]imidazol-1-yl)piperidine-2,6-dione] gave an EC50 of 7.4 nM.

`C[C@H]1CN(Cc2ccc3c(c2)n(C)c(=O)n3C2CCC(=O)NC2=O)CCN1CC1CCN(C(=O)c2cc(F)c(C3=CCN([C@@H](C)c4cc5c(-n6cc(F)c7c(c6=O)CCN7)ccnc5n4C)CC3)c(F)c2)CC1` (stereo partly drawn) [Example 3u8, 3-(5-(((S)-4-((1-(3,5-difluoro-4-(1-((S)-1-(4-(7-fluoro-4-oxo-1,2,3,4-tetrahydro-5H-pyrrolo[3,2-c]pyridin-5-yl)-1-methyl-1H-pyrrolo[2,3-b]pyridin-2-yl)ethyl)-1,2,3,6-tetrahydropyridin-4-yl)benzoyl)piperidin-4-yl)methyl)-3-methylpiperazin-1-yl)methyl)-3-methyl-2-oxo-2,3-dihydro-1H-benzo[d]imidazol-1-yl)piperidine-2,6-dione] returned an EC50 of 5.9 nM.

Usually Emax stands for the maximal effect, on the per cent scale that the assay sets. For orientation: DC50 means the concentration at which degradation of the target reaches its halfway point. A word on the EC50: it is the concentration needed to bring the measured effect to its halfway point.
